Reference: ChEMBL document CHEMBL1134671, “Novel lead generation through hypothetical pharmacophore three-dimensional database searching: discovery of isoflavonoids as nonsteroidal inhibitors of rat 5 alpha-reductase” (J Med Chem, 2001)

Target: T1, Steroid 5-alpha-reductase (Rattus norvegicus, UniProt P24008+P31214)
T1 sequence (P24008 whole entry): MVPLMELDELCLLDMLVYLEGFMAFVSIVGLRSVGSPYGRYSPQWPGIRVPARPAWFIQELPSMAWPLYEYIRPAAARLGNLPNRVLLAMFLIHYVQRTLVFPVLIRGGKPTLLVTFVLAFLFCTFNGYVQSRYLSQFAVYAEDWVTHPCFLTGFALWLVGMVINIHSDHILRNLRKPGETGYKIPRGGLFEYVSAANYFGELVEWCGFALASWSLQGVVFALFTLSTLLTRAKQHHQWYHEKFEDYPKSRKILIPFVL
T1 sequence (P31214 whole entry): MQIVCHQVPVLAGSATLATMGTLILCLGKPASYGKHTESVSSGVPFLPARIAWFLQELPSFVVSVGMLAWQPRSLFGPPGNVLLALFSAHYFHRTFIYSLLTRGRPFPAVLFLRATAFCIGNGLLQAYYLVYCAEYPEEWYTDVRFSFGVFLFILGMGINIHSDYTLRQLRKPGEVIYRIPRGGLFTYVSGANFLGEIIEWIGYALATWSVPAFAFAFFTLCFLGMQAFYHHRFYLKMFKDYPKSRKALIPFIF
Assay: Inhibitory concentration against rat Steroid 5-alpha-reductase
Type: protein assay

Row | SMILES | IC50 [µM]
1 | COc1ccc(-c2coc3c4c(cc(OC)c3c2=O)OC(C)(C)C=C4)c(OC)c1 | 30.1
2 | COc1cc2c(cc1OC)-c1c(oc3c4c(cc(O)c3c1=O)OC(C)(C)C=C4)CO2 | 48.7
3 | COc1cc2c(c3occ(-c4ccc(OCc5ccccc5)cc4OCc4ccccc4)c(=O)c13)C=CC(C)(C)O2 | 27.4
4 | COc1cc2c(c3occ(-c4ccc(OCc5ccccc5)cc4OCc4ccccc4)c(=O)c13)C(=O)CC(C)(C)O2 | 31

Second part, the molecule after the results:

Row | IC50 [µM] | SMILES
5 | 26.2 | CC(C)(O)C1Cc2c(ccc(-c3coc4cc5c(c(O)c4c3=O)CC(C(C)(C)O)O5)c2O)O1 (stereo not drawn)
6 | 6.9 | CC(C)(O)C1Cc2c(O)ccc(-c3coc4cc(O)cc(O)c4c3=O)c2O1 (stereo not drawn)
7 | 23.1 | CC(C)(O)C1Cc2c(ccc(-c3coc4cc(O)cc(O)c4c3=O)c2O)O1 (stereo not drawn)
8 | 15.7 | C=C(C)C1Cc2c(cc3occ(-c4ccc(O)cc4O)c(=O)c3c2O)O1 (stereo not drawn)
